Measured values: article PMC8372822, “A Concise Synthetic Strategy Towards the Novel Calcium-dependent Lipopeptide Antibiotic, Malacidin A and Analogues” (Frontiers in Chemistry, 2021)
Like-named read-outs stand apart in the source and are kept apart here. Positions of bridges follow the written chain, without caps; N, C: chain ends. Non-standard residues stand in square brackets, D forms with d. Residues, ends and D or L forms follow the SMILES beside them. *: point of attachment. Benzoyl(4-Ph) = O=C(c1ccc(-c2ccccc2)cc1)*; Decanoyl = CCCCCCCCCC(=O)*; Dap = NC[C@H](N)C(=O)O

Key:
[1] = system: Staphylococcus aureus (ATCC 29213); format: cell-based
Method: MIC assays were performed in accordance with the CLSI recommended protocol^17 with minor adjustments. Briefly, Staphylococcus aureus (ATCC 29213) was grown at 37 °C with shaking (200 rpm) in Mueller Hinton (MH) broth supplemented with either 1.5 mM (near the concentration commonly employed for daptomycin testing [1.25 mM]) or 15 mM CaCl2 (in accordance with the reported testing of malacidin by Hover et al.^1) from an autoclaved stock solution of CaCl2. The respective Ca^2+ adjusted media was used for all further compound and culture dilutions. A two-fold dilution series of the test compounds was prepared in triplicate in polypropylene 96-well plates. Cultures of bacteria grown for 8 h were diluted accordingly in fresh media before adding 50 µL of inoculum to each well of the MIC plate, to achieve a final volume of 100 µL with a uniform CFU/ml of ~5 x10^5 in each well. A growth control (untreated) and sterility control (non-inoculated) well were included for each test compound replicate. Plates were incubated at 37 °C with shaking for 18 h before determining the MIC by visual inspection. MIC values were determined as the lowest concentration at which no growth was observed consistently across all three biological replicates of the assay and within triplicates of each test compound.
Table S2. MIC values of diastereomer 1a at different CaCl2 concentrations.

[2] = Ca2+ binding capability by 1H NMR in the presence of CaCl2; conditions: 1a 5.6 mM in D2O, CaCl2 at 1.5 mM and 15 mM, 500 MHz, 298 K
Method: Despite these differences, it was observed that the lipid sp^2 proton signals closely matched that of the natural product and no peaks arising from cis-trans isomerization were observed, indicating the tolerance of acid-sensitive lipid 25 to the optimized TFA side chain deprotection conditions and HPLC purification protocols.
[picture] Figure S16. Overlay of ^1H NMR spectra of synthetic 1a (5.6 mM) recorded at 500 MHz, 298 K in D2O spiked with Et3N (1.88 mM) and CaCl2 of varying concentrations: 0 mM CaCl2 (bottom), 1.5 mM CaCl2 (middle), 15 mM CaCl2 (top).

[3] = system: Staphylococcus aureus ATCC 6538; assay: microbe, parasite or virus in culture; format: cell-based; conditions: for MIC: S. aureus ATCC 6538, CAMHB, in presence of 50 mg L^-1 of CaCl2, 37 °C, 18 to 24 h, biological triplicate, maximum concentration 128 µg mL^-1
Method: Antimicrobial susceptibility testing was performed in biological triplicate by determining the minimum inhibitory concentrations (MIC) of the six malacidin analogues and the control antibiotics, penicillin G and daptomycin. Malacidin analogues 31, 36, 39, and 40 were prepared as 10 mg mL^-1 stock solutions in filter sterilised MilliQ water. Compounds 37, and 38 were prepared as 5 mg mL^-1 stock solutions in filter sterilised MilliQ water. Malacidin analogues were tested at a maximum concentration of 128 µg mL^-1. Bacterial inoculums of Staphylococcus aureus ATCC 6538 were prepared by diluting an overnight culture to a final optical density 600 nm (OD600) of 0.003 in cation adjusted Mueller Hinton broth (CAMH) to yield 5 × 10^5 CFU mL^-1 (final) in all assays. MIC assays were performed in 96-well microtiter plates in a total volume of 100 µL, and compounds were serially diluted across the plate in 2-fold dilutions. The MIC was reported as the lowest concentration of the test compound for which no growth occurred after incubation at 37 °C for 18 to 24 h. For all MIC testing CAMHB was supplemented with calcium (50 mg L^-1 final) as per the CLSI guidelines for daptomycin^17
Table S3. MIC values of simplified analogues 31, 36-40 in presence of 50 mg L^-1 of CaCl2.^aTesting was additionally performed in the absence of CaCl2 and no activity for any of the malacidin analogues was observed against S. aureus.

[4] = system: methicillin-resistant Staphylococcus aureus (MRSA), MRSA USA300; conditions: ref Hover et al., 2018, cited from earlier work
Text: In 2018, Brady et al. reported the isolation of malacidin A (1) as part of an extensive metagenomic mining study of bacterial DNA obtained from soil samples in search of novel bioactive natural products ([Owen et al., 2013]; [Hover et al., 2018]). […] Malacidin ... || FIGURE 1 Structure of malacidin A (1); non-canonical amino acids and the lipid tail are highlighted in purple; the undefined stereochemistry of β-carbon centers is indicated with an asterisk; the calcium-binding region residues are specified in red; the macrolactam bond is highlighted with blue shading. The stereochemistry and MIC values of the isolated malacidin A (1) ([Hover et al., 2018]) and synthesized diastereomers [this work 1a, the Li group 1b–1e ([Sun et al., 2020])] are shown above; X in 1 represents undefined stereochemistry. TEXT PRINTED IN THE PICTURE: Malacidin A (1): MIC (μg mL^ ...

[5] = system: vancomycin-resistant Enterococcus faecium (VRE); conditions: ref Hover et al., 2018; cited from earlier work
Text: (§1) In 2018, Brady et al. reported the isolation of malacidin A (1) as part of an extensive metagenomic mining study of bacterial DNA obtained from soil samples in search of novel bioactive natural products ([Owen et al., 2013]; [Hover et al., 2018]). […] Malacidin ...

[6] = system: S. aureus; conditions: after repeated exposure to S. aureus; ref Hover et al., 2018; cited from earlier work
Text: as §1

[7] = cited from earlier work
Text: as §1

[8] = ref Hover et al., 2018; cited from earlier work
Text: Evaluation of the antibacterial activity of the synthesized analogues 1a, 31 and 36–40 was then undertaken.

CC(C)CC/C=C\C=C\C(=O)N[C@H](C(=O)N[C@@H]1C(=O)N[C@H](C(C)C)C(=O)N[C@@H](CCCCN)C(=O)N[C@@H]([C@H](O)C(=O)O)C(=O)N[C@@H](CC(=O)O)C(=O)NCC(=O)N[C@H]([C@@H](C)C(=O)O)C(=O)N[C@@H](C(C)C)C(=O)N2C[C@H](C)C[C@H]2C(=O)N[C@H]1C)[C@H](C)C(=O)O [1a]
activity toward S. aureus ([1]; 15 mM CaCl2 (Supplementary Table S2)): no activity | MIC ([1]; S.aureus strain: ATCC 29213, Figure 1, this work): > 64 mg/L | activity toward S. aureus ([1]; media supplemented with 1.25–1.5 mM CaCl2 (Supplementary Table S2)): no activity | interaction with Ca^2+ ions (signal shifts or line broadening in 1H NMR) [2]: fails to interact with Ca^2+ ions

CC(C)[C@@H]1NC(=O)[C@@H](CC(=O)O)NC(=O)CNC(=O)[C@H](CC(=O)O)NC(=O)[C@H](CC(=O)O)NC(=O)[C@H](CCCCN)NC(=O)[C@@H](C(C)C)NC(=O)[C@@H](NC(=O)[C@H](CC(=O)O)NC(=O)c2ccc(-c3ccccc3)cc2)CNC(=O)[C@@H]2CCCN2C1=O [compound 40] ({Benzoyl(4-Ph)}-D[Dap][dV]KDDG[dD]VP; lactam 2-C)
MIC [3]: >128 >128 µg/mL

malacidin A
MIC ([4]; MRSA): 0.2 to 0.8 mg/L | MIC ([4]; S.aureus strain: MRSA USA300, Figure 1): 0.2 to 0.8 mg/L | MIC [5]: 0.8 to 2.0 mg/L | induction of resistance [6]: did not induce resistance | cytotoxicity [7]: non-cytotoxic | molecular target bound ([7]; preliminary mechanistic studies, ref Hover et al., 2018): binding to lipid II | CaCl2 concentration of maximum activity [8]: 15 mM

CCCCCCCCCC(=O)N[C@@H](CC(=O)O)C(=O)N[C@H]1CNC(=O)[C@@H]2CCCN2C(=O)[C@H](C(C)C)NC(=O)[C@@H](CC(=O)O)NC(=O)CNC(=O)[C@H](CC(=O)O)NC(=O)[C@H](CC(=O)O)NC(=O)[C@H](CCCCN)NC(=O)[C@@H](C(C)C)NC1=O [compound 31] (Decanoyl-D[Dap][dV]KDDG[dD]VP; lactam 2-C)
activity toward S. aureus ([3]; media supplemented with 1.25–1.5 mM CaCl2 (Supplementary Table S3)): no activity

CC1(C)S[C@@H]2[C@H](NC(=O)Cc3ccccc3)C(=O)N2[C@H]1C(=O)O [Penicillin G, penicillin G]
MIC ([3]; Staphylococcus aureus, ATCC6538, read-out: MIC): 0.0312 mg/L
